Earlier results as cited in PubChem BioAssay AID1259409 (Chemical Carcinogenesis Research Information System (CCRIS), 2018).
Several values for one entry are separate records, joined by “and”; a condition that tells them apart may be missing. Equal entries are not always repeated.

System: rodent chemically induced tumor inhibition, incidence and multiplicity
Assay: CCRIS tumor inhibitor studies
Conditions: Dose [Inhibitor]: 0

## COc1ccc2cc3[n+](cc2c1OC)CCc1cc2c(cc1-3)OCO2
Carcinogen: METHYLCHOLANTHRENE, 56-49-5, 0.5 MG/KG BW BY GAVAGE 3/WK FOR 8 WK (STUDY DURATION: 180 D), Route [Inhibitor]: ORAL, Species: MOUSE, Strain/Sex: SWISS/MALE, Target Tissue: Type of Lesion: SKIN: SARCOMA, Dose [Carcinogen]: 200 UG/ANIMAL ONCE 5 D POST INHIBITOR TREATMENT
  tumour outcome (control, treated, inhibition, significance): 100%, 40%, 60%, not calculated
Carcinogen: METHYLCHOLANTHRENE, 56-49-5, 2.5 MG/KG BW BY GAVAGE 3/WK FOR 8 WK (STUDY DURATION: 180 D), Route [Inhibitor]: ORAL, Species: MOUSE, Strain/Sex: SWISS/MALE, Target Tissue: Type of Lesion: SKIN: SARCOMA, Dose [Carcinogen]: 200 UG/ANIMAL ONCE 5 D POST INHIBITOR TREATMENT
  tumour outcome (control, treated, inhibition, significance): 100%, 47%, 53%, not calculated
Carcinogen: METHYLCHOLANTHRENE, 56-49-5, 5 MG/KG BW BY GAVAGE 3/WK FOR 8 WK (STUDY DURATION: 180 D), Route [Inhibitor]: ORAL, Species: MOUSE, Strain/Sex: SWISS/MALE, Target Tissue: Type of Lesion: SKIN: SARCOMA, Dose [Carcinogen]: 200 UG/ANIMAL ONCE 5 D POST INHIBITOR TREATMENT
  tumour outcome (control, treated, inhibition, significance): 100%, 67%, 33%, not calculated
Carcinogen: N,N-DIETHYLNITROSAMINE, 55-18-5, 10 MG/KG BW BY GAVAGE 5 D/WK FOR 141 D (STUDY DURATION: 30 WK), Route [Inhibitor]: ORAL, Species: RAT, Strain/Sex: WISTAR/FEMALE, Target Tissue: Type of Lesion: LIVER: TUMOR, Dose [Carcinogen]: 0.02% IN DISTILLED WATER BY GAVAGE 5 D/WK FOR 20 WK BEGINNING 1 D POST INHIBITOR FIRST DOSE
  tumour outcome (control, treated, inhibition, significance): 100%, 100%, 0%, not significant
Carcinogen: N,N-DIETHYLNITROSAMINE, 55-18-5, 25 MG/KG BW BY GAVAGE 5 D/WK FOR 141 D (STUDY DURATION: 30 WK), Route [Inhibitor]: ORAL, Species: RAT, Strain/Sex: WISTAR/FEMALE, Target Tissue: Type of Lesion: LIVER: TUMOR, Dose [Carcinogen]: 0.02% IN DISTILLED WATER BY GAVAGE 5 D/WK FOR 20 WK BEGINNING 1 D POST INHIBITOR FIRST DOSE
  tumour outcome (control, treated, inhibition, significance): 100%, 50%, 50%, not significant
Carcinogen: N,N-DIETHYLNITROSAMINE, 55-18-5, 50 MG/KG BW BY GAVAGE 5 D/WK FOR 141 D (STUDY DURATION: 30 WK), Route [Inhibitor]: ORAL, Species: RAT, Strain/Sex: WISTAR/FEMALE, Target Tissue: Type of Lesion: LIVER: TUMOR, Dose [Carcinogen]: 0.02% IN DISTILLED WATER BY GAVAGE 5 D/WK FOR 20 WK BEGINNING 1 D POST INHIBITOR FIRST DOSE
  tumour outcome (control, treated, inhibition, significance): 100%, 50%, 50%, not significant

## CC(=O)O[C@H]1CC(C)(C)C(=C=C/C(C)=C/C=C/C(C)=C/C=C/C=C(C)/C=C/C=C(\C)C(=O)C[C@@]23O[C@]2(C)C[C@@H](O)CC3(C)C)[C@](C)(O)C1
Carcinogen: N-ETHYL-N'-NITRO-N-NITROSOGUANIDINE, 70-25-7, 0.005% IN DRINKING WATER (DISSOLVED IN 50 MG/ML DMSO) FOR 4 WK BEGINNING POST CARCINOGEN TREATMENT FOLLOWED BY 12 WK, Route [Inhibitor]: ORAL, Species: MOUSE, Strain/Sex: C57BL/MALE, Target Tissue: Type of Lesion: DUODENUM: TUMORS, Dose [Carcinogen]: 100 MG/L IN DRINKING WATER AD LIBITUM FOR 4 WK, Promoter: NONE USED
  tumour outcome (control, treated, inhibition, significance): 14/28 (78%), 13/20 (65%), 17%, not significant
Carcinogen: N-ETHYL-N'-NITRO-N-NITROSOGUANIDINE, 70-25-7, 0.005% IN DRINKING WATER (DISSOLVED IN 50 MG/ML DMSO) FOR 16 WK BEGINNING POST CARCINOGEN TREATMENT (STUDY DURATION:, Route [Inhibitor]: ORAL, Species: MOUSE, Strain/Sex: C57BL/MALE, Target Tissue: Type of Lesion: DUODENUM: TUMORS, Dose [Carcinogen]: 100 MG/L IN DRINKING WATER AD LIBITUM FOR 4 WK, Promoter: NONE USED
  tumour outcome (control, treated, inhibition, significance): 14/21 (67%), 7/20 (35%), 48%, p<0.05 and 14/28 (78%), 6/20 (30%), 62%, p<0.005
Carcinogen: N-ETHYL-N'-NITRO-N-NITROSOGUANIDINE, 4245-77-6, 0.005% IN DRINKING WATER BEGINNING POST CARCINOGEN TREATMENT AND CONTINUING FOR 16 WK (STUDY DURATION: 20 WK), Route [Inhibitor]: ORAL, Species: MOUSE, Strain/Sex: C57BL/MALE, Target Tissue: Type of Lesion: DUODENUM: TUMOR, Dose [Carcinogen]: 100 MG/L DRINKING WATER FOR 4 WK, Promoter: NONE USED
  tumour outcome (control, treated, inhibition, significance): 14/21 (67%), 7/20 (35%), 48%, p<0.05

## CC(=O)O
60 UMOL (MG) INJECTED WITH CARCINOGEN INTO THIGH OF BOTH HIND LIMBS (STUDY DURATION: 79 WK), Route [Inhibitor]: INTRAMUSCULAR, Species: RAT, Strain/Sex: F344/MALE, Target Tissue: Type of Lesion: INJECTION SITE: SARCOMA, Dose [Carcinogen]: 2.5 MG PER SITE INJECTED INTO THIGH OF BOTH HIND LIMBS, Promoter: NONE USED
  tumour outcome (control, treated, inhibition, significance): 100%, 95%, 5%, not significant

## C[C@@]12C=Cc3occc3[C@H]1CC[C@@]13C[C@@H](CC[C@H]12)[C@@](O)(CO)C3
Carcinogen: 7,12-DIMETHYLBENZ[A]ANTHRACENE, 57-97-6, 0.2 G/KG OF DIET OF 50:50 MIXTURE OF KAHWEOL AND CAFESTOL FOR 14 WK BEGINNING 1 WK PRIOR TO CARCINOGEN TREATMENT (STU, Route [Inhibitor]: ORAL, Species: HAMSTER, Strain/Sex: SYRIAN/FEMALE, Target Tissue: Type of Lesion: BUCCAL POUCH: TUMOR, Dose [Carcinogen]: 0.5% SOLUTION IN MINERAL OIL PAINTED ON LEFT BUCCAL POUCH 3/WK FOR 13 WK, Promoter: NONE USED
  tumour outcome (control, treated, inhibition, significance): 14/14 (100%), 14/14 (100%), 0%, not significant
Carcinogen: 7,12-DIMETHYLBENZ[A]ANTHRACENE, 57-97-6, 2 G/KG OF DIET OF 50:50 MIXTURE OF KAHWEOL AND CAFESTOL FOR 14 WK BEGINNING 1 WK PRIOR TO CARCINOGEN TREATMENT (STUDY, Route [Inhibitor]: ORAL, Species: HAMSTER, Strain/Sex: SYRIAN/FEMALE, Target Tissue: Type of Lesion: BUCCAL POUCH: TUMOR, Dose [Carcinogen]: 0.5% SOLUTION IN MINERAL OIL PAINTED ON LEFT BUCCAL POUCH 3/WK FOR 13 WK, Promoter: NONE USED
  tumour outcome (control, treated, inhibition, significance): 14/14 (100%), 14/15 (93%), 7%, not significant

## CC/C=C\C/C=C\C/C=C\CCCCCCCC(=O)OC[C@H](CO[C@@H]1O[C@H](CO[C@H]2O[C@H](CO)[C@H](O)[C@H](O)[C@H]2O)[C@H](O)[C@H](O)[C@H]1O)OC(=O)CCCCCCCCCCCCC
Carcinogen: 7,12-DIMETHYLBENZ[A]ANTHRACENE, 57-97-6, 85 NMOL IN 0.1 ML ACETONE 2/WK FOR 20 WK APPLIED 1 HR PRIOR TO EACH PROMOTER DOSE (STUDY DURATION: 21 WK), Route [Inhibitor]: DERMAL, Species: MOUSE, Strain/Sex: ICR/FEMALE, Target Tissue: Type of Lesion: SKIN: PAPILLOMA, Dose [Carcinogen]: 390 NMOL IN 0.1 ML ACETONE ONCE, Promoter: 12-O-TETRADECANOYLPHORBOL-13-ACETATE, 16561-29-8
  tumour outcome (control, treated, inhibition, significance): 100%, 68%, 32%, p<0.05
